Here are results for 15 compounds from patent US8153626B2, “Substituted diazepine sulfonamides as bombesin receptor subtype-3 modulators” (Merck Sharp & Dohme Corp., priority 2006, dated 2012).

Like-named read-outs stand apart in the source and are kept apart here.

What is called IC50 is the concentration that inhibits the measured activity by half. The term EC50 denotes the concentration that produces a half-maximal response.

Experiment [1] concerns the target T1, human BRS3 (Homo sapiens, UniProt P32247).
T1 construct: expressed in transfected cells
T1 sequence (P32247 1-399): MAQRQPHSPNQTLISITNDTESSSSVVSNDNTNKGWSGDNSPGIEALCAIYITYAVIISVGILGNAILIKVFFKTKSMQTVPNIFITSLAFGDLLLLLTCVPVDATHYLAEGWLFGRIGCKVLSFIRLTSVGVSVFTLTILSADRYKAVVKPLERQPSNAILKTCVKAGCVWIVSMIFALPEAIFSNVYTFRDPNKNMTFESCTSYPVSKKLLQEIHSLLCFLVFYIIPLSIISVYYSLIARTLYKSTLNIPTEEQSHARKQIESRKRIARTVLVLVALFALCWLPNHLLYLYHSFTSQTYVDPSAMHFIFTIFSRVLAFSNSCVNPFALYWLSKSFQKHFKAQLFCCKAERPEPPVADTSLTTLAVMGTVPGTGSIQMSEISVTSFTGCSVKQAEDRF
The experiment in a line: [125I]-dY-peptide radioligand binding assay (filtration, membranes). The method, then: Dissociated cells were collected by centrifuging at 1000 rpm for 10 minutes. Cell pellets were resuspended and homogenized at 4° C. using a Polytron homogenizer (setting 40, 20 stokes) in approximately 10 mL membrane preparation buffer (10 mM Tris pH 7.4, 0.01 mM Pefabloc, 10 μM phosphoramidon and 40 μg/mL Bacitracin) per T175 flask. After centrifugation at 2200 rpm (1000×g) for 10 minutes at 4° C., the supernatant was transferred to a clean centrifuge tube and spun at 18,000 rpm (38,742×g) for 15 minutes. at 4° C.
The filters were washed five times with ice-cold washing buffer (1×PBS without Mg^++ and Ca^++). The radioactivity was determined by adding 30 μl of microscintillant/well after each plate was dried at room temperature overnight or placed at 50° C. for 1 hr.
A Packard Top Count was used to read the filter plates. The data in % inhibition of binding was plotted vs. the log molar concentration of receptor ligand (compound). The IC50 was reported as the inflection point of the resulting sigmoidal curve. […] The binding assays for the rat and mouse Bombesin Receptor Subtype 3 (BRS3) were performed in a similar fashion.

Experiment [2] concerns the target T1, human BRS3. The experiment is described as follows: Aequorin bioluminescent assay to measure intracellular Ca++ (HEK293AEQ cells). The following applies: read-out: human BRS-3 EC50. The class given is cell-based. As for the experimental part: HEK293/AEQ cell lines stably expressing either human, rat or mouse BRS3 cDNA were generated using standard cell biology techniques and were used for all functional assays and to prepare membranes for the rat BRS3 binding assay. […] The transfected cells were used to prepare membranes for the [^3H]-biphenyl binding assay and for the functional assays. The cells were maintained in culture under the same conditions used for the human and rat stable BRS3 HEK293AEQ cell lines. All cells were grown as attached monolayers to approximately 90% confluency in tissue culture flasks under the appropriate media in an incubator at 37° C. with 5% CO2. Cells were passed 1:3 to 1:5 twice a week depending on the rate of growth.
The same media (8 mL) containing 20 μM coelenterzine was added to the cells and incubated at 37° C. for 1 hr. The media was aspirated and the flasks rinsed with 6 mL ECB buffer (140 mM NaCl, 20 mM KCl, 20 mM HEPES, 5 mM glucose, 1 mM MgCl, 1 mM CaCl, 0.1 mg/mL BSA, pH 7.4). The cells were dissociated with a rubber-tipped scraper in 6 mL of fresh ECB buffer and collected by centrifugation at 2500 rpm for 5 minutes. The cell pellets were resuspended in ECB buffer to a concentration of 200,000 cells/mL and were either used right away or quickly frozen in liquid nitrogen for storage at −80° C. for up to six weeks.
The Aequorin assay itself was performed in 96-well format using a Wallac Microbeta luminometer equipped with microinjector module. Compounds in DMSO (0.5% final concentration) were titrated in the plates at 2× concentration in a volume of 0.1 mL ECB buffer. The cells (20,000 per well) were then injected in 0.1 mL ECB buffer and the bioluminescence monitored for 30 seconds. Alternatively, total bioluminescence was determined over 10 minutes. The bioluminescent readings were plotted vs. the log molar concentration of receptor ligand (compound). The EC50 for activation was reported as the inflection point of the resulting sigmoidal curve.

[3] abbreviates: Bombesin Subtype-3 Receptor agonism, method C, racemic mixture or the more potent enantiomer after HPLC separation.
Where [4] appears, read: Bombesin Subtype-3 Receptor Binding, method A, racemic mixture or the more potent enantiomer after HPLC separation, read-out: human BRS-3 IC50.

Compound `CC(C)(O)c1nc(-c2cccc3c2N(S(=O)(=O)c2ccc(OC(F)(F)F)cc2)Cc2ccc(C(F)(F)F)nc2N3)no1` (racemic) [Example 1, 2-{3-[6-{[4-(Trifluoromethoxy)phenyl]sulfonyl}-2-(trifluoromethyl)-6,11-dihydro-5H-pyrido[2,3-b][1,5]benzodiazepin-7-yl]-1,2,4-oxadiazol-5-yl}propan-2-ol] registered an IC50 on human BRS3 [1] of 3.6 nM. Besides, on human BRS3 [2] (setting [3]), the EC50 was 73 nM.
Regarding `CC(C)(O)c1nc(-c2cccc3c2N(S(=O)(=O)c2ccc(C(F)(F)F)cc2)Cc2ccc(C(F)(F)F)nc2N3)no1` (racemic) [Example 2, 2-[3-(2-(Trifluoromethyl)-6-{[4-(trifluoromethyl)phenyl]sulfonyl}-6,11-dihydro-5H-pyrido[2,3-b][1,5]benzodiazepin-7-yl)-1,2,4-oxadiazol-5-yl]propan-2-ol], at human BRS3 [1] (setting [4]), the IC50 was 8.3 nM. Moreover, the EC50 at human BRS3 [2] (setting [3]) came to 158 nM.
Taken in the same sequence, the figures for `CC(C)(C)c1ccc(S(=O)(=O)N2Cc3ccc(C(F)(F)F)nc3Nc3cccc(-c4noc(C(C)(C)O)n4)c32)cc1` (racemic) [Example 3, 2-{3-[6-[(4-tert-Butylphenyl)sulfonyl]-2-(trifluoromethyl)-6,11-dihydro-5H-pyrido[2,3-b][1,5]benzodiazepin-7-yl]-1,2,4-oxadiazol-5-yl}propan-2-ol] were 1.9 nM and 63 nM.
For `CC(C)(O)c1nc(-c2cccc3c2N(S(=O)(=O)c2ccc(C4(C(F)(F)F)CC4)cc2)Cc2ccc(C(F)(F)F)nc2N3)no1` (racemic) [Example 4, 2-{3-[2-(Trifluoromethyl)-6-({4-[1-(trifluoromethyl)cyclopropyl]phenyl}sulfonyl)-6,11-dihydro-5H-pyrido[2,3-b][1,5]benzodiazepin-7-yl]-1,2,4-oxadiazol-5-yl}-2-propanol], in that order: 3.3 nM and 139 nM.
Consider `CC(C)(C)c1ccc(S(=O)(=O)N2Cc3ccc(C(F)(F)F)nc3Nc3cccc(-c4noc(CO)n4)c32)cc1` (racemic) [Example 5, {3-[6-[(4-tert-Butylphenyl)sulfonyl]-2-(trifluoromethyl)-6,11-dihydro-5H-pyrido[2,3-b]-[1,5]benzodiazepin-7-yl]-1,2,4-oxadiazol-5-yl}methanol], for which the half-inhibitory concentration (IC50) at human BRS3 [1] (setting [4]) worked out at 0.75 nM. In addition, the concentration giving a half-maximal response (EC50) on human BRS3 [2] (setting [3]) turned out to be 34 nM.
For `O=S(=O)(c1ccc(C(F)(F)F)cc1)N1Cc2ccc(C(F)(F)F)nc2Nc2cccc(-c3noc(CO)n3)c21` (racemic) [Example 6, [3-(2-(Trifluoromethyl)-6-{[4-(trifluoromethyl)phenyl]sulfonyl}-6,11-dihydro-5H-pyrido[2,3-b]-[1,5]benzodiazepin-7-yl)-1,2,4-oxadiazol-5-yl]methanol], in that order: 6.4 nM and 52 nM.
Taken in the same sequence, the figures for `O=S(=O)(c1ccc(OC(F)(F)F)cc1)N1Cc2ccc(C(F)(F)F)nc2Nc2cccc(-c3noc(CO)n3)c21` (racemic) [Example 7, {3-[6-{[4-(Trifluoromethoxy)phenyl]sulfonyl}-2-(trifluoromethyl)-6,11-dihydro-5H-pyrido[2,3-b]-[1,5]benzodiazepin-7-yl]-1,2,4-oxadiazol-5-yl}methanol] were 2.9 nM and 33 nM.
`Cc1ccc2c(c1C)N(S(=O)(=O)c1ccc(C(C)(C)C)cc1)Cc1ccc(C(F)(F)F)nc1N2` (racemic) [Example 251, 6-[(4-tert-Butylphenyl)sulfonyl]-7,8-dimethyl-2-(trifluoromethyl)-6,11-dihydro-5H-pyrido[2,3-b][1,5]benzodiazepine] gave an IC50 on human BRS3 [1] of 1 nM. Moreover, the EC50 on human BRS3 [2] (setting [3]) was found to be 100 nM.
Regarding `CC(C)(C)c1ccc(S(=O)(=O)N2Cc3ccc(C(F)(F)F)nc3Nc3ccc4ncccc4c32)cc1` [Example 316, 13-[(4-tert-Butylphenyl)sulfonyl]-9-(trifluoromethyl)-12,13-dihydro-7H-pyrido[2′,3′:5,6][1,4]diazepino[2,3-ƒ]quinoline], the IC50 at human BRS3 [1] turned out to be 0.64 nM. In addition, the EC50 on human BRS3 [2] (setting [3]) was determined as 48 nM.
`CC(C)(C)c1ccc(S(=O)(=O)N2Cc3ccc(C(F)(F)F)nc3Nc3ccc(C(C)(C)C(=O)O)cc32)cc1` [Example 374, 2-[6-[(4-tert-Butylphenyl)sulfonyl]-2-(trifluoromethyl)-6,11-dihydro-5H-pyrido[2,3-b][1,5]benzodiazepin-8-yl]-2-methylpropanoic acid]: at human BRS3 [1] (setting [4]), the IC50 turned out to be 4.9 nM. The EC50 on human BRS3 [2] (setting [3]) was found to be 130 nM.
Taken in the same sequence, the figures for `CC(C)(C)c1ccc(S(=O)(=O)N2Cc3ccc(C(F)(F)F)nc3Nc3ccc(-c4noc(CO)n4)cc32)cc1` [Example 437, {3-[6-[(4-tert-Butylphenyl)sulfonyl]-2-(trifluoromethyl)-6,11-dihydro-5H-pyrido[2,3-b][1,5]benzodiazepin-8-yl]-1,2,4-oxadiazol-5-yl}methanol] were 4.1 nM and 121 nM.
As to `CC(C)(C)c1ccc(S(=O)(=O)N2Cc3ccc(C(F)(F)F)nc3Nc3ccncc32)cc1` [Example 464, 6-[(4-tert-Butylphenyl)sulfonyl]-2-(trifluoromethyl)-6,11-dihydro-5H-dipyrido[2,3-e:3′,4′-b][1,4]diazepine], on human BRS3 [1] (setting [4]), the IC50 came out at 38 nM. In addition, the EC50 on human BRS3 [2] (setting [3]) came to 196 nM.
`CC(C)(O)c1nc(C2(c3cccc4c3N(S(=O)(=O)c3ccc(OC(F)(F)F)cc3)Cc3ccc(C(F)(F)F)nc3N4)CCC2)no1` [Example 531, 2-(3-{1-[6-{[4-(Trifluoromethoxy)phenyl]sulfonyl}-2-(trifluoromethyl)-6,11-dihydro-5H-pyrido[2,3-b][1,5]benzodiazepin-7-yl]cyclobutyl}-1,2,4-oxadiazol-5-yl)propan-2-ol]: at human BRS3 [1] (read-out: human BRS-3 IC50), the IC50 turned out to be 0.65 nM. In addition, on human BRS3 [2], the EC50 was 94 nM.
For the compound `CC(C)(C(N)=O)c1cccc2c1N(S(=O)(=O)c1ccc(OC(F)(F)F)cc1)Cc1ccc(C(F)(F)F)nc1N2` [Example 533, 2-Methyl-2-[6-{[4-(trifluoromethoxy)phenyl]sulfonyl}-2-(trifluoromethyl)-6,11-dihydro-5H-pyrido[2,3-b][1,5]-benzodiazepin-7-yl]propanamide], the IC50 at human BRS3 [1] (setting [4]) is 2.2 nM. Moreover, the EC50 on human BRS3 [2] (setting [3]) stood at 16 nM.
For `Cc1ccc2c(n1)N(S(=O)(=O)c1ccc(C(C)(C)C)cc1)Cc1ccc(C(F)(F)F)nc1N2` [Example 536], in that order: 5.3 nM and 66 nM.
